The test system of test [1] is isogenic HeLa-derived cell line that expresses the βIII isotype of tubulin. The note with it: cited from earlier work.
The next test deals with HeLa cells. Kind of test: Cell cycle distribution by flow cytometry. The conditions noted are these: 18 h; 125 nM AF, 200 nM AI, 35 nM AJ. On the technique in general: Flow cytometry measures light scatter and fluorescence of single cells or particles in a stream.
For test [2], the system named is doxorubicin- and paclitaxel-resistant Pgp-expressing tumor, Mam17/ADR. The conditions noted are these: cited from earlier work.
For test [3] the following is noted: cited from earlier work.
In test [4] the test system is cell lines that overexpress Pgp. The conditions noted are these: Pgp overexpressing cell lines; cited from earlier work.
Test [5] deals with cell lines that overexpress MRP7. The note with it: MRP7 overexpressing cell lines; cited from earlier work.

Structures are written as SMILES.

For the molecule `CC(=O)O[C@H]1C(=O)[C@@]2(C)[C@H]([C@H](OC(=O)c3ccccc3)[C@]3(O)C[C@H](OC(=O)[C@H](O)[C@@H](NC(=O)c4ccccc4)c4ccccc4)C(C)=C1C3(C)C)[C@]1(OC(C)=O)CO[C@@H]1C[C@@H]2O` [paclitaxel], the “sensitivity of βIII-tubulin-overexpressing cell line compared with parental HeLa cells” value in test [1] is on record as “less sensitive”. For the same molecule, the “effect on cell cycle distribution / mitotic progression” value in the test on HeLa cells is “mitotic arrest”.
On to `CC(=O)O[C@@H]1[C@H]2[C@@H]3[C@@H](O)C(=O)[C@H]4C[C@@H]5O[C@@H]5[C@H](OC(C)=O)[C@]4(C)[C@H]3C[C@H](OC(C)=O)[C@]2(C)[C@@H]2[C@@H]1[C@]1(C)C(=C[C@H]2C)OC(=O)[C@@]1(C)O` [Taccalonolide E], for which, in test [2], the activity in vivo result is listed as “highly active”. The “in vivo antitumor activity” value in test [3] is given as “have in vivo antitumor activity”. Besides, the efficacy in vitro result in test [4] and in test [5] was “effective” in each case.

The values above are taken from patent US9340572B2, “Taccalonolide microtubule stabilizers” (THE BOARD OF REGENTS OF THE UNIVERSITY OF TEXAS SYSTEM, priority 2011, dated 2016).
